Publication PMC12495443, “Developing inhibitors of the guanosine triphosphate hydrolysis accelerating activity of Regulator of G protein Signaling-14 [drawing 1]” (The Journal of Biological Chemistry, 2025)

Target: T1, human RGS14 RGS-box (wild-type) (Homo sapiens, UniProt O43566)
T1 construct: human RGS14 RGS-box (aa 46–195 of UniProt O43566); host or cells: E. coli
T1 sequence (O43566 46-195): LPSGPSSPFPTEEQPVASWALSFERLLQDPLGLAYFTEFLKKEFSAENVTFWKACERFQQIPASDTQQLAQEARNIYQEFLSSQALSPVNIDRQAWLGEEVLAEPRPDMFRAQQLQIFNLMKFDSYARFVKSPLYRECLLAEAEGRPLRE
Test: Transcreener GDP RGScreen fluorescence polarization assay of RGS14 RGS-box GAP activity on Gαi1(DM)
Type: biochemical
Settings: wild-type RGS14 RGS-box GAP activity, Gαi1(DM), Transcreener GDP RGScreen; read-out: RGS14 pIC50 (converted)
From the text: We previously described work with BellBrook Labs creating the Transcreener GDP RGScreen fluorescence polarization assay of steady-state GTP hydrolysis, leveraging a double point-mutant in the Gα enzyme to make GTP hydrolysis, rather than GDP (product) release, the rate-limiting step for multiple rounds of GTP conversion ([57], [59]). […] Titrating inputs of the double point-mutant (“DM”) Gαi1 and RGS-box recombinant proteins (Fig. S2, B and C) established a robust, medium-throughput assay for evaluating potential RGS14 and RGS12 inhibitors, with “assay quality” Z′ scores ([60]) above 0.76 for each target (Fig. S2D).
Reagents and protocols for the fluorescence anisotropy-based Transcreener GDP RGScreen assay using a rate-altered, double point-mutant, recombinant Gαi1 protein have been extensively described previously ([43], [44]); reactions were always performed so that total GTP converted over the time course was consistently less than 10% of reaction maximum input. Specific methods for its application in assessing RGS14 and RGS12 GAP activity are summarized as follows. Open-reading frames (ORFs) encoding wild-type versions of the human RGS14 RGS-box (aa 46–195 of UniProt O43566) and human RGS12 RGS-box (aa 695–843 of UniProt O14924) were each sub-cloned in-frame with an N-terminal hexahistidine (His6) expression tag in the plasmid pET30a, expressed in E. coli cultures, and then purified by nickel-nitriloacetate (Ni-NTA) and size-exclusion (Superdex 200) column chromatographies by GenScript using previously described methods ([35]). These recombinant His6-tag fusion proteins were stored at −80 °C in storage buffer (150 mM NaCl, 50 mM Tris-HCl pH 8.0, 10% glycerol) before thawing and use. Cysteine-less versions were similarly produced by ORF site-directed mutagenesis: for RGS14, codons for cysteine residues 47 and 130 (numbered as in PDB id 2JNU) were replaced with serine codons; for RGS12, codons for cysteines 4, 51, 78, and 134 (numbered in relation to PDB id 2EBZ) were replaced with serine codons. Use of Transcreener GDP-detection reagents to assess compound inhibition of Naegleria fowleri Gα7 protein GTPase activity ([83]) has previously been described ([84]).

IC50, > 1 mM:
COc1ccc(-n2c(SC(C)C(=O)c3cc(C)c(C)cc3C)nc3ccccc32)cc1 (stereo not drawn) [Z19576531], COc1ccc2nc(SC(C)C(=O)Nc3cc(F)ccc3F)[nH]c2c1 (stereo not drawn) [Z112468620], COc1ccc2nc(SC(C)C(=O)c3ccc(F)cc3)[nH]c2c1 (stereo not drawn) [Z16077798], COc1ccc(C(=O)C(C)Sc2nc3ccc(OC)cc3[nH]2)cc1 (stereo not drawn) [Z16077705], COc1ccc2nc(SC(C)C(=O)c3ccc(NC(=O)C(C)C)cc3)[nH]c2c1 (stereo not drawn) [Z65841956], COc1ccc2nc(SCCOCC3CCCO3)[nH]c2c1 (stereo not drawn) [Z1258859165], CCn1c(SC(C)C(=O)c2ccc3c(c2)CCC3)nc2cc(S(=O)(=O)N3CCOCC3)ccc21 (stereo not drawn) [Z16669629], COc1ccc2[nH]c(SCC(=O)c3ccc(O)c(O)c3)nc2c1 [Z223822242], Cc1ccc2[nH]c(SC(C)C(=O)c3ccc(F)cc3)nc2c1 (stereo not drawn) [Z18443583], COc1ccc2nc(SC(C(=O)OC(C)(C)C)C(C)C)[nH]c2c1 (stereo not drawn) [Z5032180761], COc1ccc2nc(SC(C)C(=O)c3ccc(OC)c(OC)c3)[nH]c2c1 (stereo not drawn) [Z940567722], CC(Sc1nc2ccccc2n1C(C)C)C(=O)c1ccc(C(C)C)cc1C(C)C (stereo not drawn) [Z54156331], COc1ccc2nc(SC(C)C(=O)c3cc(C)ccc3C)[nH]c2c1 (stereo not drawn) [Z16077483], COc1ccc2nc(SC(C)C(=O)Nc3ccc(F)cc3F)[nH]c2c1 (stereo not drawn) [Z112468618], COCCn1c(SC(C)C(=O)c2ccc(OC)cc2)nc2ccccc21 (stereo not drawn) [Z16216221], COc1ccc2nc(SCC(O)c3ccccc3)[nH]c2c1 (stereo not drawn) [Z56784116], CCn1c(SC(C)C(=O)c2ccc(F)cc2)nc2cc(S(N)(=O)=O)ccc21 (stereo not drawn) [Z51419107], CC(=O)N1CCc2cc(C(=O)C(C)Sc3nc4cc(C)ccc4[nH]3)ccc21 (stereo not drawn) [Z165332254], CCc1ccc(C(=O)C(C)Sc2nc3cc(C)ccc3[nH]2)cc1 (stereo not drawn) [Z18443315], CCn1c(SC(C)C(=O)c2ccc(Cl)cc2)nc2cc(S(N)(=O)=O)ccc21 (stereo not drawn) [Z51418567], CCn1c(SC(C)C(=O)c2c(F)cc(F)cc2F)nc2ccccc21 (stereo not drawn) [Z1098345881], COc1ccc2nc(SC(C)C(=O)Nc3ccc(C)cc3)[nH]c2c1 (stereo not drawn) [Z16077036], CCn1c(SC(C)C(=O)c2ccc3c(c2)CCC3)nc2cc(S(N)(=O)=O)ccc21 (stereo not drawn) [Z51418316], COc1ccc2nc(SC(C)C(=O)c3ccc(NC(=O)C(C)(C)C)cc3)[nH]c2c1 (stereo not drawn) [Z50965385], CCn1c(SC(C)C(=O)c2cc(C)ccc2C)nc2cc(S(N)(=O)=O)ccc21 (stereo not drawn) [Z51418807], CCc1ccc(C(=O)C(C)Sc2nc3cc(S(N)(=O)=O)ccc3n2CC)cc1 (stereo not drawn) [Z51418852], COc1ccc2[nH]c(SC(C(N)=O)c3ccc(F)cc3)nc2c1 (stereo not drawn) [Z234729962], COc1ccc(C(=O)C(C)Sc2nc3cc(C)ccc3[nH]2)cc1Cl (stereo not drawn) [Z5032180749], COc1ccc2nc(SC(C)C(=O)c3ccccc3)[nH]c2c1 (stereo not drawn) [Z16077228], COc1ccc2nc(SC(C)C(=O)c3ccc(C(C)(C)C)cc3)[nH]c2c1 (stereo not drawn) [Z16077565], COc1ccc2nc(SC(C)C(=O)c3ccc(C)c(C)c3)[nH]c2c1 (stereo not drawn) [Z16077488], COc1ccc2nc(SC(C)C(=O)c3ccc(Br)cc3)[nH]c2c1 (stereo not drawn) [Z16077584], COc1ccc2nc(SC(C)C(=O)c3ccc(F)cc3F)[nH]c2c1 (stereo not drawn) [Z167736700], CCC(Sc1nc2ccc(OC)cc2[nH]1)C(=O)c1ccc(OC)cc1 (stereo not drawn) [Z5032180767], CCC(Sc1nc2ccc(OC)cc2[nH]1)C(=O)c1ccccc1 (stereo not drawn) [Z447938100], CCC(Sc1nc2ccc(OC)cc2[nH]1)C(=O)c1ccc(Cl)cc1 (stereo not drawn) [Z5032180785], COc1ccc2nc(SC(C)C(=O)c3cc(C)c(C)cc3C)[nH]c2c1 (stereo not drawn) [Z16077531], CCOc1ccc2nc(SCC(=O)c3ccc(CC)cc3)[nH]c2c1 [Z55030990], CCn1c(SC(C)C(=O)c2c(F)cc(F)cc2F)nc2cc(S(=O)(=O)N3CCCCC3)ccc21 (stereo not drawn) [Z5032180738], CC(Sc1nc2ccccc2n1C)C(=O)c1ccc(NS(C)(=O)=O)cc1 (stereo not drawn) [Z50932699], COc1ccc(C(=O)C(Sc2nc3ccccc3n2C)c2ccc(OC)cc2)cc1 (stereo not drawn) [Z15478257], COc1ccc2nc(SCC(=O)c3ccc(F)cc3)[nH]c2c1 [Z16077977], CCn1c(SC(C)C(=O)c2ccccc2)nc2cc(S(=O)(=O)N3CCOCC3)ccc21 (stereo not drawn) [Z16669878], CCn1c(SC(C)C(=O)c2ccc(Br)cc2)nc2cc(S(N)(=O)=O)ccc21 (stereo not drawn) [Z51418902], COCCn1c(SC(C)C(=O)c2ccc3c(c2)CCN3C(C)=O)nc2ccccc21 (stereo not drawn) [Z165550978], CCn1c(SC(C)C(=O)c2ccc(NS(C)(=O)=O)cc2)nc2ccccc21 (stereo not drawn) [Z50932618], CCOc1ccc(C(=O)C(C)Sc2nc3cc(S(N)(=O)=O)ccc3n2CC)cc1 (stereo not drawn) [Z51419689], COc1ccc(-n2c(SC(C)C(=O)c3c(F)cc(F)cc3F)nc3ccccc32)cc1 (stereo not drawn) [Z5032180751], COc1ccc2nc(SCCC(=O)c3ccc(F)cc3)[nH]c2c1 [Z16077963], CCCC(=O)Nc1ccc(C(=O)C(C)Sc2nc3ccc(OC)cc3[nH]2)cc1 (stereo not drawn) [Z50965416], COc1ccc2nc(SC(C)C(=O)c3ccc4c(c3)CCC4)[nH]c2c1 (stereo not drawn) [Z16076970], Cc1ccc2[nH]c(SC(C)C(=O)c3ccc(OC(F)F)cc3)nc2c1 (stereo not drawn) [Z18443016], COc1ccc2nc(SC(C)C(=O)N(C)C)[nH]c2c1 (stereo not drawn) [Z92077129], CCn1c(SC(C)C(=O)c2ccc(NC(C)=O)cc2)nc2cc(S(N)(=O)=O)ccc21 (stereo not drawn) [Z51418527], COc1ccc2nc(SC(C)C(=O)c3[nH]c(C)c(C(C)=O)c3C)[nH]c2c1 (stereo not drawn) [Z98717471], CCn1c(SC(C)C(=O)c2cccc(Cl)c2)nc2cc(S(N)(=O)=O)ccc21 (stereo not drawn) [Z51418566], COc1ccc2nc(SC(C)C(=O)c3cccc(F)c3)[nH]c2c1 (stereo not drawn) [Z5032180758], COc1ccc2nc(SC(C)C(=O)c3ccc(OC(F)F)cc3)[nH]c2c1 (stereo not drawn) [Z16077231], COc1ccc2nc(SC(C)C(=O)c3ccco3)[nH]c2c1 (stereo not drawn) [Z3277796272], CCn1c(SC(C)C(=O)c2ccc3c(c2)CCN3C(C)=O)nc2ccccc21 (stereo not drawn) [Z165501154], COc1ccc2nc(SC(C)C(=O)c3ccccc3C(F)(F)F)[nH]c2c1 (stereo not drawn) [Z5032180788], COc1ccc2nc(SC(C)C(=O)c3cccc(Cl)c3)[nH]c2c1 (stereo not drawn) [Z16077229], COc1ccc2nc(SC(C)C(=O)c3ccc(F)c(F)c3)[nH]c2c1 (stereo not drawn) [Z16077536], CCOc1ccc2[nH]c(SCCC(=O)c3ccc(F)cc3)nc2c1 [Z19828508], Cc1ccc2[nH]c(SC(C)C(=O)c3cccc(F)c3)nc2c1 (stereo not drawn) [Z5032180743], CCC(Sc1nc2ccc(OC)cc2[nH]1)C(=O)c1ccc(NC(C)=O)cc1 (stereo not drawn) [Z1340653159], COc1ccc2nc(SCC(=O)c3ccc(O)cc3)[nH]c2c1 [Z112468740], CCOc1ccc(C(=O)C(C)Sc2nc3ccccc3n2C)cc1 (stereo not drawn) [Z15479255], Cc1ccc2[nH]c(SC(C)C(=O)c3c(F)cc(F)cc3F)nc2c1 (stereo not drawn) [Z1098347474], CCCCn1c(SC(C(=O)c2ccc(OC)cc2)c2ccc(OC)cc2)nc2cc(S(N)(=O)=O)ccc21 (stereo not drawn) [Z19162246], CCn1c(SC(C)C(=O)c2ccc(OC)cc2)nc2cc(S(N)(=O)=O)ccc21 (stereo not drawn) [Z51419018], COc1ccc(-n2c(SC(C)C(=O)c3cc(C)ccc3C)nc3ccccc32)cc1 (stereo not drawn) [Z19576483], COc1ccc2nc(SC(C)C(=O)c3ccc4c(c3)CCN4C(C)=O)[nH]c2c1 (stereo not drawn) [Z165591262], COc1ccc2nc(SC(C)C(=O)c3ccc(NC(C)=O)cc3)[nH]c2c1 (stereo not drawn) [Z16077185], COc1ccc(C(=O)C(C)Sc2nc3ccc(OC)cc3[nH]2)c(OC)c1 (stereo not drawn) [Z16077640]
